Experimental data taken from ChEMBL document CHEMBL1201862, “PubChem BioAssay data set” (2004).
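Cultured in 96-well plates, cells were exposed to test compound for 48 hours across five concentrations. At the GI50, growth is halved.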 Active and inactive are the calls of the source. No stated cut-off is given here; in the data, active = GI50 up to about 1.1 µM and inactive = higher.

Key:
Assay in all cases: growth of human tumour cells (NCI), 48 h
[1] = test system: SNB-19
[2] = test system: UO-31
[3] = test system: CAKI-1
[4] = test system: SK-MEL-2
[5] = test system: TK-10
[6] = test system: SW-620
[7] = test system: SK-MEL-28
[8] = test system: M14
[9] = test system: BT-549
[10] = test system: SR
[11] = test system: IGROV-1
[12] = test system: EKVX
[13] = test system: NCI-H23
[14] = test system: LOX IMVI
[15] = test system: 786-0
[16] = test system: MDA-N
[17] = test system: PC-3
[18] = test system: MCF7
[19] = test system: HOP-92

With `CCCCCCNCCCNc1c2ccccc2nc2cccc([N+](=O)[O-])c12` the GI50 [1] was 0.0845 µM (active), the GI50 [2] was 0.122 µM (active) and the GI50 [3] was 0.0548 µM (active). For the same molecule, the GI50 [4] was 0.0181 µM (active), the GI50 [5] was 0.0621 µM (active) and the GI50 [6] was 0.00481 µM (active). For the same molecule, the GI50 [7] was 0.158 µM (active), the GI50 [8] was 0.0119 µM (active) and the GI50 [9] was 0.11 µM (active). The GI50 [10] was 0.0256 µM (active), the GI50 [11] was 0.00873 µM (active) and the GI50 [12] was 0.0246 µM (active). For the same molecule, the GI50 [13] was 0.0116 µM (active), the GI50 [14] was 0.0193 µM (active) and the GI50 [15] was 0.00948 µM (active). The GI50 [16] was 0.0118 µM (active), the GI50 [17] was 0.0163 µM (active) and the GI50 [18] was 0.00376 µM (active). For the same molecule, the GI50 [19] was 0.0211 µM (active).
With `Cn1c(-c2cccs2)cc(-c2ccccc2)c1-c1cccs1` the GI50 [1] was 12.2 µM (inactive), the GI50 [2] was > 100 µM (inactive) and the GI50 [3] was 93.5 µM (inactive). For the same molecule, the GI50 [4] was 25.5 µM (inactive), the GI50 [5] was > 100 µM (inactive) and the GI50 [6] was > 100 µM (inactive). For the same molecule, the GI50 [7] was > 100 µM (inactive), the GI50 [8] was 56.6 µM (inactive) and the GI50 [9] was > 100 µM (inactive). The GI50 [10] was 18.2 µM (inactive), the GI50 [11] was 39.4 µM (inactive) and the GI50 [12] was 22.7 µM (inactive). The GI50 [13] was 4.75 µM (inactive), the GI50 [14] was > 100 µM (inactive) and the GI50 [15] was 35.4 µM (inactive). The GI50 [16] was > 100 µM (inactive), the GI50 [17] was 58.5 µM (inactive) and the GI50 [18] was 3.58 µM (inactive). The GI50 [19] was > 100 µM (inactive).
With `CCOC(=O)NC(=S)NN(C)C1=NCC(C)(C)S1` the GI50 [1] was > 100 µM (inactive), the GI50 [2] was > 100 µM (inactive) and the GI50 [3] was > 100 µM (inactive). The GI50 [4] was > 100 µM (inactive), the GI50 [5] was > 100 µM (inactive) and the GI50 [6] was > 100 µM (inactive). For the same molecule, the GI50 [7] was > 100 µM (inactive), the GI50 [9] was > 100 µM (inactive) and the GI50 [10] was > 100 µM (inactive). For the same molecule, the GI50 [11] was > 100 µM (inactive), the GI50 [12] was > 100 µM (inactive) and the GI50 [14] was > 100 µM (inactive). The GI50 [15] was > 100 µM (inactive), the GI50 [16] was > 100 µM (inactive) and the GI50 [17] was > 100 µM (inactive). The GI50 [18] was > 100 µM (inactive) and the GI50 [19] was > 100 µM (inactive).
For `CCOP(=O)(OCC)/C(C#N)=C/c1coc2cc(C)cc(C)c2c1=O`, the GI50 [1] was > 100 µM (inactive), the GI50 [2] was > 100 µM (inactive) and the GI50 [3] was > 100 µM (inactive). The GI50 [4] was > 100 µM (inactive), the GI50 [6] was > 100 µM (inactive) and the GI50 [7] was > 100 µM (inactive). For the same molecule, the GI50 [8] was > 100 µM (inactive), the GI50 [9] was > 100 µM (inactive) and the GI50 [10] was > 100 µM (inactive). The GI50 [11] was > 100 µM (inactive), the GI50 [12] was > 100 µM (inactive) and the GI50 [13] was > 100 µM (inactive). For the same molecule, the GI50 [14] was > 100 µM (inactive), the GI50 [15] was > 100 µM (inactive) and the GI50 [16] was > 100 µM (inactive). For the same molecule, the GI50 [17] was > 100 µM (inactive), the GI50 [18] was > 100 µM (inactive) and the GI50 [19] was > 100 µM (inactive).
`CC1(C)C/C(=N/O)c2c(nc3ccc4ccccc4c3c2-c2ccc(Cl)cc2)C1` was tested, and the GI50 [1] was 35 µM (inactive), the GI50 [2] was 16.8 µM (inactive) and the GI50 [3] was 13.5 µM (inactive). For the same molecule, the GI50 [4] was 43.7 µM (inactive), the GI50 [5] was 16.1 µM (inactive) and the GI50 [6] was 18.3 µM (inactive). The GI50 [7] was 31.3 µM (inactive), the GI50 [8] was 33.5 µM (inactive) and the GI50 [9] was 10.6 µM (inactive). For the same molecule, the GI50 [10] was 4.75 µM (inactive), the GI50 [11] was 14.9 µM (inactive) and the GI50 [12] was 15.7 µM (inactive). The GI50 [13] was 22 µM (inactive), the GI50 [14] was 13.7 µM (inactive) and the GI50 [15] was 3.79 µM (inactive). The GI50 [16] was 25.1 µM (inactive), the GI50 [17] was 25.9 µM (inactive) and the GI50 [18] was 11.2 µM (inactive). The GI50 [19] was 18.3 µM (inactive).
For `CC(C)=CC(=O)c1[nH]c2ccccc2c1CC(=O)NCCc1c[nH]cn1`, the GI50 [1] was > 100 µM (inactive), the GI50 [2] was > 100 µM (inactive) and the GI50 [3] was > 100 µM (inactive). For the same molecule, the GI50 [4] was > 100 µM (inactive), the GI50 [5] was > 100 µM (inactive) and the GI50 [6] was > 100 µM (inactive). The GI50 [7] was > 100 µM (inactive), the GI50 [8] was > 100 µM (inactive) and the GI50 [9] was > 100 µM (inactive). For the same molecule, the GI50 [10] was > 100 µM (inactive), the GI50 [11] was > 100 µM (inactive) and the GI50 [12] was > 100 µM (inactive). The GI50 [13] was > 100 µM (inactive), the GI50 [14] was > 100 µM (inactive) and the GI50 [15] was > 100 µM (inactive). For the same molecule, the GI50 [16] was > 100 µM (inactive), the GI50 [17] was > 100 µM (inactive) and the GI50 [18] was > 100 µM (inactive). For the same molecule, the GI50 [19] was > 100 µM (inactive).
With `COC(=O)C1=C(C(=O)OC)C(OO)(c2ccccc2)OC1=O` (centres undefined) the GI50 [1] was > 100 µM (inactive), the GI50 [2] was > 100 µM (inactive) and the GI50 [3] was > 100 µM (inactive). For the same molecule, the GI50 [4] was 55.2 µM (inactive), the GI50 [5] was > 100 µM (inactive) and the GI50 [6] was > 100 µM (inactive). For the same molecule, the GI50 [7] was > 100 µM (inactive), the GI50 [8] was > 100 µM (inactive) and the GI50 [9] was > 100 µM (inactive). For the same molecule, the GI50 [10] was 38.5 µM (inactive), the GI50 [11] was 35 µM (inactive) and the GI50 [12] was > 100 µM (inactive). For the same molecule, the GI50 [13] was > 100 µM (inactive), the GI50 [14] was 31.3 µM (inactive) and the GI50 [15] was 36.5 µM (inactive). For the same molecule, the GI50 [16] was 91.4 µM (inactive), the GI50 [17] was 38.6 µM (inactive) and the GI50 [18] was 52.1 µM (inactive). For the same molecule, the GI50 [19] was > 100 µM (inactive).
In the case of `O=C1NC(N2CCCC(CO)C2)=N/C1=C\c1cccs1` (centres undefined), the GI50 [1] is reported as > 100 µM (inactive), the GI50 [2] is reported as > 100 µM (inactive) and the GI50 [3] is reported as > 100 µM (inactive). The GI50 [4] was > 100 µM (inactive), the GI50 [5] was > 100 µM (inactive) and the GI50 [6] was > 100 µM (inactive). For the same molecule, the GI50 [7] was > 100 µM (inactive), the GI50 [8] was > 100 µM (inactive) and the GI50 [9] was > 100 µM (inactive). The GI50 [10] was > 100 µM (inactive), the GI50 [11] was > 100 µM (inactive) and the GI50 [12] was > 100 µM (inactive). For the same molecule, the GI50 [13] was > 100 µM (inactive), the GI50 [14] was > 100 µM (inactive) and the GI50 [15] was > 100 µM (inactive). The GI50 [16] was > 100 µM (inactive), the GI50 [17] was > 100 µM (inactive) and the GI50 [18] was > 100 µM (inactive). For the same molecule, the GI50 [19] was > 100 µM (inactive).
In the case of `COc1c2c(cc3c1C1(O)Cc4ccc5c(c4C[N+]1(C)CC3)OCO5)OCO2` (centres undefined), the GI50 [1] is reported as > 100 µM (inactive), the GI50 [3] is reported as > 100 µM (inactive) and the GI50 [4] is reported as > 100 µM (inactive). The GI50 [5] was > 100 µM (inactive), the GI50 [6] was > 100 µM (inactive) and the GI50 [7] was > 100 µM (inactive). For the same molecule, the GI50 [8] was > 100 µM (inactive), the GI50 [9] was > 100 µM (inactive) and the GI50 [10] was 77.8 µM (inactive). For the same molecule, the GI50 [11] was > 100 µM (inactive), the GI50 [12] was 87.3 µM (inactive) and the GI50 [13] was > 100 µM (inactive). The GI50 [14] was 62.1 µM (inactive), the GI50 [15] was > 100 µM (inactive) and the GI50 [16] was > 100 µM (inactive). The GI50 [17] was 73.5 µM (inactive), the GI50 [18] was > 100 µM (inactive) and the GI50 [19] was > 100 µM (inactive).
With `O=c1[nH]cnc2c(C3OC(CO)C(O)C3O)c[nH]c12` (centres undefined) the GI50 [1] was > 100 µM (inactive), the GI50 [2] was > 100 µM (inactive) and the GI50 [3] was > 100 µM (inactive). The GI50 [5] was > 100 µM (inactive), the GI50 [6] was > 100 µM (inactive) and the GI50 [7] was > 100 µM (inactive). For the same molecule, the GI50 [8] was > 100 µM (inactive), the GI50 [9] was > 100 µM (inactive) and the GI50 [10] was > 100 µM (inactive). The GI50 [11] was > 100 µM (inactive), the GI50 [12] was > 100 µM (inactive) and the GI50 [13] was > 100 µM (inactive). The GI50 [14] was > 100 µM (inactive), the GI50 [15] was > 100 µM (inactive) and the GI50 [16] was > 100 µM (inactive). The GI50 [17] was > 100 µM (inactive), the GI50 [18] was > 100 µM (inactive) and the GI50 [19] was 68.7 µM (inactive).
With `C=CCOn1c(C=C)nc2c(C)cccc21` the GI50 [1] was 5.2 µM (inactive), the GI50 [2] was 2.43 µM (inactive) and the GI50 [3] was 2.06 µM (inactive). For the same molecule, the GI50 [4] was 2.21 µM (inactive), the GI50 [5] was 2.63 µM (inactive) and the GI50 [6] was 3.2 µM (inactive). The GI50 [7] was 10.6 µM (inactive), the GI50 [8] was 3.61 µM (inactive) and the GI50 [9] was 5.16 µM (inactive). The GI50 [10] was 2.46 µM (inactive), the GI50 [11] was 7.35 µM (inactive) and the GI50 [12] was 13.5 µM (inactive). For the same molecule, the GI50 [13] was 7.74 µM (inactive), the GI50 [14] was 2.9 µM (inactive) and the GI50 [15] was 2.18 µM (inactive). For the same molecule, the GI50 [16] was 3.13 µM (inactive), the GI50 [17] was 3.08 µM (inactive) and the GI50 [18] was 2.92 µM (inactive). The GI50 [19] was 8.32 µM (inactive).
